Values after ≈ are worked out from the molar mass of the structure shown.
Experiments:
Format in all cases: cell-based
[1] = tested on: human lung cancer cell A549; assay: Ex vivo survival assay (MTT) for anti-lung cancer effects, A549; details: for IC50 value lower than that of crude extracts from A. camphorata: A549, relative to crude extracts (13.21 µg/ml); for IC50 ( µg/ml ) A549: A549 cells, 48 hours incubation, MTT, 570 nm
Source text: MTT assay is commonly used to determine cell proliferation, percent of viable cells, and cytotoxicity. 3-[4,5-dimethylthiazol-2-yl]2,5-diphenyltetrazolium bromide (MTT) is a yellow dye, which can be absorbed by the living cells and be reduced to purplish blue formazan crystals by succinate tetrazolium reductase in mitochondria. Formazan formation can therefore be used to assess and determine the survival rate of cells. The NCI anti-cancer drug screen model was also employed to test the anti-lung cancer effect of the Antroquinonol B and Antroquinonol C in the present invention. The Antroquinonols isolated from example 1 were added into the culture media of human lung cancer cell A549 with the abovementioned MTT assay to analyze lung cancer cell survival rates. Human lung cancer cell A549 was obtained from the Bioresources Collection and Research Center (BCRC) of the Food Industry Research and Development Institute with an accession number of BCRC 60074. A549 cells were cultivated in media containing fetal calf serum for 24 hours. The proliferated cells were washed once with PBS, then treated with 1x trypsin-EDTA and centrifuged at 1200 rpm for 5 minutes. The supernatant was discarded and the cell pellet was resuspended in 10 ml of fresh culture medium by gently shaking. The cells were placed in a 96-well plate. Total ethanol extracts of Antrodia camphorata without purification (the control group), Antroquinonol B or Antroquinonol C (the experimental group) were added into each of the 96 wells at the following concentrations: 30, 10, 3, 1, 0.3, 0.1 and 0.03 µg/ml, respectively. The cells were incubated at 37°C in a 5% CO2 incubator for 48 hours. MTT was added in a concentration of 2.5 mg/ml into each well in dark and incubated for 4 hours, followed by the addition of 100 µl of lysis buffer to stop the reaction. The plates were read on an ELISA reader at wavelength of 570 nm to determine the survival rates. Table 2 Results of ex vivo survival assay for inhibition of lung cancer cells

[2] = tested on: human hepatic-cancer cells, Hep 3B; assay: Ex vivo survival assay (MTT) for anti-hepatic cancer effects, Hep 3B; details: for IC50 ( µg/ml ) Hep3B: Hep 3B cells, 48 hours incubation, MTT, 570 nm; for IC50 value lower than that of crude extracts from A. camphorata: Hep 3B, relative to crude extracts (5.10 µg/ml)
Source text: (§1) MTT assay is commonly used to determine cell proliferation, percent of viable cells, and cytotoxicity. 3-[4,5-dimethylthiazol-2-yl]2,5-diphenyltetrazolium bromide (MTT) is a yellow dye, which can be absorbed by the living cells and be reduced to purplish blue formazan crystals by succinate tetrazolium reductase in mitochondria. Formazan formation can therefore be used to assess and determine the survival rate of cells. The NCI anti-cancer drug screen model was employed to test the anti-cancer effect of the Antroquinonol B and Antroquinono C in the present invention. The Antroquinonos isolated from example 1 were added into the culture media of human hepatic-cancer cells, Hep 3B or Hep G2, for tumor cell survival assay. Hepatic-cancer cells Hep 3B (BCRC 60434) and Hep G2 (BCRC 60025), were obtained from the Bioresources Collection and Research Center (BCRC) of the Food Industry Research and Development Institute. The human hepatic-cancer cells, Hep 3B and Hep G2, were cultivated in media containing fetal calf serum for 24 hours. The proliferated cells were washed once with PBS, then treated with 1x trypsin-EDTA and centrifuged at 1200 rpm for 5 minutes. The supernatant was discarded and the cell pellet was resuspended in 10 ml of fresh culture medium by gently shaking. The cells were placed in a 96-well plate. Total ethanol extracts of Antrodia camphorata without purification (the control group), Antroquinonol B or Antroquinonol C (the experimental group) were added into each of the 96 wells at the following concentrations: 30, 10, 3, 1, 0.3, 0.1 and 0.03 µg/ml, respectively. The cells were incubated at 37°C in a 5% CO2 incubator for 48 hours. MTT was added in a concentration of 2.5 mg/ml into each well in dark and incubated for 4 hours, followed by the addition of 100 µl of lysis buffer to stop the reaction. The plates were read on an ELISA reader at wavelength of 570 nm to determine the survival rates. Table 3 Results of ex vivo survival assay for inhibition of hepatic cancer cells

[3] = tested on: human prostate cancer cells, DU-145; assay: Ex vivo survival assay (MTT) for anti-prostate cancer effects, DU-145; details: for IC50 value lower than the IC50 value of the control group: DU-145, relative to control group (41.39 µg/ml); for IC50 ( µg/ml ) DU-145: DU-145 cells, 48 hours incubation, MTT, 570 nm
Source text: (§2) MTT assay is commonly used to determine cell proliferation, percent of viable cells, and cytotoxicity. 3-[4,5-dimethylthiazol-2-yl]2,5-diphenyltetrazolium bromide (MTT) is a yellow dye, which can be absorbed by the living cells and be reduced to purplish blue formazan crystals by succinate tetrazolium reductase in mitochondria. Formazan formation can therefore be used to assess and determine the survival rate of cells.
(§3) The NCI anti-cancer drug screen model was also employed to test the anti-cancer effect of the Antroquinonols in the present invention. Antroquinonol B and Antroquinonol C isolated from […] were added into the culture media of human prostate cancer cells, LNCaP or DU-145, and prostate cancer cell survival rates were analyzed with the abovementioned MTT assay. LNCaP is originated from epithelial cells of prostate gland, which depends on androgen in the early stage and thus is androgen-dependent cancer cell. […] This recurrent type prostate cancer has no effective treatment so far. Both LNCaP and DU-145 were ordered from NHRI with accession numbers of CCRC 60088 and CCRC 60348 respectively.
(§4) The human prostate-cancer cells, LNCaP and DU-145, were cultivated in media containing fetal calf serum for 24 hours. The proliferated cells were washed once with PBS, then treated with 1x trypsin-EDTA and centrifuged at 1200 rpm for 5 minutes. The supernatant was discarded and the cell pellet was resuspended in 10 ml of fresh culture medium by gently shaking. The cells were placed in a 96-well plate. Total ethanol extracts of Antrodia camphorata without purification (the control group), Antroquinonol B or Antroquinonol C (the experimental group) were added into each of the 96 wells at the following concentrations: 30, 10, 3, 1, 0.3, 0.1 and 0.03 µg/ml, respectively. The cells were incubated at 37°C in a 5% CO2 incubator for 48 hours. MTT was added in a concentration of 2.5 mg/ml into each well in dark and incubated for 4 hours, followed by the addition of 100 µl of lysis buffer to stop the reaction. The plates were read on an ELISA reader at wavelength of 570 nm to determine the survival rates. Table 4 Results of ex vivo survival assay for inhibition of prostate cancer cells

[4] = tested on: human breast-cancer cells, MCF-7; assay: Ex vivo survival assay (MTT) for anti-breast cancer effects, MCF-7; details: for IC50 value lower than that of crude extracts from A. camphorata: MCF-7, relative to crude extracts (11.13 µg/ml); for IC50(µg/ml) MCF-7: MCF-7 cells, 48 hours incubation, MTT, 570 nm
Experimental: (§5) The NCI anti-cancer drug screen model was adopted to test the anti-cancer effect of the isolated compounds from example 1 in the present invention. The isolated Antroquinonol B and Antroquinonol C from example 1 were added into the culture media of human breast-cancer cells, MCF-7 or MDA-MB-231, to test for tumor cell survival. This survival assay was carried out with the widely known MTT (3-[4,5-dimethylthiazol-2-yl]2,5-diphenyltetrazolium bromide) assay. MCF-7 cell line is originated from primary breast cancer cells (early stage), sensitive to estrogen and therefore is estrogen-dependent, while MDA-MB-231 is insensitive to estrogen and therefore is estrogen-independent, which is a difficult tumor with a low survival rate. MTT assay is commonly used to determine cell proliferation, percent of viable cells, and cytotoxicity. 3-[4,5-dimethylthiazol-2-yl]2,5-diphenyltetrazolium bromide (MTT) is a yellow dye, which can be absorbed by the living cells and be reduced to purplish blue formazan crystals by succinate tetrazolium reductase in mitochondria. Formazan formation can therefore be used to assess and determine the survival rate of cells. The human breast-cancer cells, MCF-7 (purchased from the Bioresources Collection and Research Center (BCRC) with the accession number of BCRC60436) and MDA-MB-231 (purchased from National Health Research Institutes (NHRI) with the accession number of CCRC 60425) were cultivated in media containing fetal calf serum for 24 hours. The proliferated cells were washed once with PBS, then treated with 1x trypsin-EDTA and centrifuged at 1200 rpm for 5 minutes. The supernatant was discarded and the cell pellet was resuspended in 10 ml of fresh culture medium by gently shaking. The cells were placed in a 96-well plate. Total ethanol extracts of Antrodia camphorata without purification (the control group), Antroquinonol B or Antroquinonol C (the experimental group) were added into each of the 96 wells at the following concentrations: 30, 10, 3, 1, 0.3, 0.1 and 0.03 µg/ml, respectively. The cells were incubated at 37°C in a 5% CO2 incubator for 48 hours. MTT was added in a concentration of 2.5 mg/ml into each well in dark and incubated for 4 hours, followed by the addition of 100 µl of lysis buffer to stop the reaction. The plates were read on an ELISA reader at wavelength of 570 nm to determine the survival rates. Table 1 Results of ex vivo survival assay for inhibition of breast cancer cells

[5] = tested on: human prostate cancer cells, LNCaP; assay: Ex vivo survival assay (MTT) for anti-prostate cancer effects, LNCaP; details: for IC50 ( µg/ml ) LNCaP: LNCaP cells, 48 hours incubation, MTT, 570 nm; for IC50 value lower than the IC50 value of the control group: LNCaP, relative to control group (11.49 µg/ml)
Source text: as §2, §3, §4

[6] = tested on: human hepatic-cancer cells, Hep G2; assay: Ex vivo survival assay (MTT) for anti-hepatic cancer effects, Hep G2; details: for IC50 value lower than that of crude extracts from A. camphorata: Hep G2, relative to crude extracts (18.63 µg/ml); for IC50 ( µg/ml ) HepG2: Hep G2 cells, 48 hours incubation, MTT, 570 nm
Source text: as §1

[7] = tested on: human breast-cancer cells, MDA-MB-231; assay: Ex vivo survival assay (MTT) for anti-breast cancer effects, MDA-MB-231; details: for IC50 value lower than that of crude extracts from A. camphorata: MDA-MB-231, relative to crude extracts (25.81 µg/ml); for IC50(µg/ml) MDA-MB-231: MDA-MB-231 cells, 48 hours incubation, MTT, 570 nm
Experimental: as §5

Molecule | IC50 value lower than that of crude extracts from A. camphorata [1] [%] | IC50 ( µg/ml ) A549 [1] [µg/mL] | IC50 ( µg/ml ) Hep3B [2] [µg/mL] | IC50 value lower than that of crude extracts from A. camphorata [2] [%] | IC50 value lower than the IC50 value of the control group [3] [%] | IC50 ( µg/ml ) DU-145 [3] [µg/mL] | IC50 value lower than that of crude extracts from A. camphorata [4] [%] | IC50(µg/ml) MCF-7 [4] [µg/mL] | IC50 ( µg/ml ) LNCaP [5] [µg/mL] | IC50 value lower than the IC50 value of the control group [5] [%] | IC50 value lower than that of crude extracts from A. camphorata [6] [%] | IC50 ( µg/ml ) HepG2 [6] [µg/mL] | IC50 value lower than that of crude extracts from A. camphorata [7] [%] | IC50(µg/ml) MDA-MB-231 [7] [µg/mL]
COC1=C(OC)[C@H](O)[C@H](C/C=C(\C)CC/C=C(/C)C/C=C/C(C)(C)O)[C@@H](C)C1=O [Antroquinonol B] | 9.92 | 11.9 (≈ 29.3 µM) | 1.21 (≈ 2.98 µM) | 76.27 | 75.55 | 10.12 (≈ 24.9 µM) | 82.56 | 1.94 (≈ 4.77 µM) | 5.67 (≈ 13.9 µM) | 50.65 | 82.18 | 3.32 (≈ 8.17 µM) | 66.21 | 8.72 (≈ 21.4 µM)
Antroquinonol C | 37.85 | 8.21 | 1.32 | 74.12 | 70.5 | 12.21 | 89.49 | 1.17 | 8.72 | 24.11 | 72.52 | 5.12 | 15.15 | 21.9

From EP2233463A1, “NEW COMPOUNDS ISOLATED FROM EXTRACT OF ANTRODIA CAMPHORATA” (Golden Biotechnology Corporation, priority 2007, dated 2009)
